Results taken from US20080076824A1, “Compounds That Inhibit Replication Of Human Immunodeficiency Virus” (priority 2004, published 2008).
Read-outs that look alike come from different tables or passages of the source. Non-standard residues stand in square brackets, D forms with d. Residues, ends and D or L forms follow the SMILES beside them. Sar = CNCC(=O)O

Legend:
HIV-1 (IIIB) [1] = experiment: microbe, parasite or virus in culture; conditions: Human immunodeficiency virus 1, IIIB, CCRF-CEM, read-out: EC50 against HIV-1(IIIB), CEM cell cultures, Table 2
HIV-1 (NL4.3) = conditions: read-out: EC50 HIV-1 NL3.4; CEM cell cultures, syncytia formation
Experimental: (§1) Human T-lymphocytic CEM cells (4.5×10^5 cells per ml) were suspended in fresh cell culture medium and infected with HIV-1 (IIIB and NL4.3) or HIV-2 (ROD or EHO) at 100 CCID50 (1 CCID50 being the virus dose infective for 50% of the cell cultures) per ml of cell suspension. Then, 100 μl of the infected cell suspension were transferred to microplate wells, mixed with 100 μl of appropriate (freshly prepared) dilutions of the test compounds (i.e., at final concentrations of […]), and were further incubated at 37° C. After 4 to 5 days, giant cell formation was recorded microscopically in the CEM cell cultures.

HIV-2 (EHO) = system: HIV-2 (EHO)
Experimental: as §1

HIV-1 (IIIB) [2] = system: HIV-1 (IIIB)
in vitro = conditions: human
HIV-2 (ROD) = experiment: microbe, parasite or virus in culture; assay type: cell-based; conditions: 2 (ROD)
Experimental: as §1, with “cultures. […] (See Table 1).” for “cultures.”
(§2) MT-4, C8166 or CEM cells (4 to 5×10^5 cells per ml) were suspended in fresh culture medium (RPMI-1640 medium supplemented with 10% fetal bovine serum (FBS) (BioWittaker Europe, Verviers, Belgium), 2 mM L-glutamine and […] NaHCO3). Subsequently, the cells were infected with HIV-1 (IIIB) or HIV-2(ROD) at ˜100 CCID50 (1 CCID50 being the dose infective for 50% of the cell cultures) per ml of cell suspension. Then, 100 μl of the infected cell suspension were transferred to 96-well microplate wells, mixed with 100 μl of the appropriate (5-fold) dilutions of the test compounds and further incubated at 37° C. After 4 to 5 days, giant cell formation was recorded microscopically in the CEM and C8166 cell cultures. The MT-4 cell cultures were treated with trypan blue and the number of viable cells was determined.

HIV-1 (IIIB) [3] = experiment: microbe, parasite or virus in culture; conditions: read-out: EC50 (MT-4) HIV-1 (IIIB); Table 19
Experimental: as §2

HIV-2(ROD) = experiment: microbe, parasite or virus in culture; conditions: read-out: EC50 (MT-4) HIV-2 (ROD); Table 19
Experimental: as §2

Row | EC50 (HIV-1 (IIIB) [1]) | SMILES | also measured
1 | > 500 µM | C[C@H](N)C(N)=O [L-Alaninamide] | –
2 | – | CNCC(=O)N1CCC[C@H]1C(=O)NCC(N)=O [SAR-PG-NH2, sarcosinylprolylglycinamide] (H-[Sar]-Pro-Gly-NH2) | EC50 (HIV-1 (NL4.3)): 49 µM; EC50 (HIV-2 (EHO)): 56 µM; EC50 (HIV-1 (IIIB) [2]; read-out: EC50 HIV-1 IIIB, CEM cell cultures, syncytia formation, Table 1): 31 ± 4.9 µM; EC50 (in vitro): > 1500 µM; EC50 (HIV-2 (ROD)): 35 ± 9.8 µM
3 | > 1000 µM | NCCN [Ethylene diamine] | –
4 | > 500 µM | NC(=O)[C@@H](N)Cc1ccc(O)cc1 [L-Tyrosinamide] | –
5 | – | CCOC(=O)C(NC(=O)OCc1ccccc1)OCC (stereo not drawn) [Example 23, α-ethoxy-N-benzyloxycarbonylglycine ethyl ester] | melting point: 66 to 68 °C
6 | > 500 µM | CC(C)CC(N)C(N)=O (racemic) [DL-Leucinamide] | –
7 | > 500 µM | O=C(O)[C@@H]1CCCN1 [L-Proline] | –
8 | > 1000 µM | NC(=O)C(N)Cc1ccccc1 (racemic) [DL-Phenylalaninamide] | –
9 | > 200 µM | NC(=O)[C@@H](N)Cc1c[nH]c2ccccc12 [L-Tryptophanamide] | –
10 | > 1000 µM | CNCC(N)=O [Sarcosinamide] | –
11 | > 500 µM | NC(=O)C(N)Cc1c[nH]c2ccccc12 (racemic) [DL-Tryptophanamide] | –
12 | > 500 µM | NC(=O)[C@@H](N)Cc1ccccc1 [L-Phenylalaninamide] | –
13 | > 500 µM | NCC(=O)O [Glycine] | –
14 | – | NCC(N)=S [Glycin-thioamide, reference compound] | EC50 (HIV-1 (IIIB) [2]; read-out: EC50 against HIV-1(IIIB), CEM cell cultures, Table 2): > 500 µM
15 | – | CC(C)(C)OC(=O)NC(=O)C(N)OCc1ccccc1 (stereo not drawn) [Example 20, α-benzyloxy-N-tert-butoxycarbonylglycinamide] | melting point: 115 to 120 °C
16 | – | NC(=O)CO [Glycolamide, Glycolamide (HO—CH2—CO—NH2), reference compound] | EC50 (HIV-1 (IIIB) [2]; read-out: EC50 (CEM) HIV-1 (IIIB), Table 19): > 500 µM; EC50 (HIV-1 (IIIB) [3]): > 500 µM; EC50 (HIV-2(ROD)): > 500 µM
17 | > 1000 µM | CC(C)C[C@@H](N)C(=O)O [D-Leucine] | –
18 | > 500 µM | CNC(=O)CN [Glycine methylamide] | –
19 | > 1000 µM | NC(=O)[C@@H](N)CO [L-Serinamide] | –
20 | > 500 µM | C[C@@H](O)[C@H](N)C(N)=O [L-Threoninamide] | –
21 | – | CCOC(N)C(=O)NC(=O)OCc1ccccc1 (stereo not drawn) [Example 25, α-ethoxy-N-benzyloxycarbonylglycinamide] | melting point: 119 to 121 °C
